Results published in paper doi:10.1101/2020.07.01.182642v1 (biorxiv, 2020).

Assays:
Conditions in all cases: binder
OXSR1 = OXSR1 (Homo sapiens, UniProt O95747)
CSNK1E = CSNK1E (Homo sapiens, UniProt P49674)
BMPR2 = BMPR2 (Homo sapiens, UniProt Q13873)
STK32C = STK32C (Homo sapiens, UniProt Q86UX6)
PAK2 = PAK2 (Homo sapiens, UniProt Q13177)
TLK1 = TLK1 (Homo sapiens, UniProt Q9UKI8)
MAPK7 = MAPK7 (Homo sapiens, UniProt Q13164)
CAMK2G = CAMK2G (Homo sapiens, UniProt Q13555)
PBK = PBK (Homo sapiens, UniProt Q96KB5)
NEK6 = NEK6 (Homo sapiens, UniProt Q9HC98)
Sequence of NEK6 (Q9HC98 whole entry): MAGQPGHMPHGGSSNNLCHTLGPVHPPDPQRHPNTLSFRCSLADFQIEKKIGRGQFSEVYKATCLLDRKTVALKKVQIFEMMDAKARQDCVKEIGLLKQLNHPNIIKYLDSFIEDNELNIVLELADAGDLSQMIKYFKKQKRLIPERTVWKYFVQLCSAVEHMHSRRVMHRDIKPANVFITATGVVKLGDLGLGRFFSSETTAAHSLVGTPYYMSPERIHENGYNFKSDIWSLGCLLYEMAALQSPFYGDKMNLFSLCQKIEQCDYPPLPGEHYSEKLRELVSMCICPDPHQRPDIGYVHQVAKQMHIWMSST

TYK2 = TYK2 (Homo sapiens, UniProt P29597)
NEK11 = NEK11 (Homo sapiens, UniProt Q8NG66)
Sequence of NEK11 (Q8NG66 whole entry): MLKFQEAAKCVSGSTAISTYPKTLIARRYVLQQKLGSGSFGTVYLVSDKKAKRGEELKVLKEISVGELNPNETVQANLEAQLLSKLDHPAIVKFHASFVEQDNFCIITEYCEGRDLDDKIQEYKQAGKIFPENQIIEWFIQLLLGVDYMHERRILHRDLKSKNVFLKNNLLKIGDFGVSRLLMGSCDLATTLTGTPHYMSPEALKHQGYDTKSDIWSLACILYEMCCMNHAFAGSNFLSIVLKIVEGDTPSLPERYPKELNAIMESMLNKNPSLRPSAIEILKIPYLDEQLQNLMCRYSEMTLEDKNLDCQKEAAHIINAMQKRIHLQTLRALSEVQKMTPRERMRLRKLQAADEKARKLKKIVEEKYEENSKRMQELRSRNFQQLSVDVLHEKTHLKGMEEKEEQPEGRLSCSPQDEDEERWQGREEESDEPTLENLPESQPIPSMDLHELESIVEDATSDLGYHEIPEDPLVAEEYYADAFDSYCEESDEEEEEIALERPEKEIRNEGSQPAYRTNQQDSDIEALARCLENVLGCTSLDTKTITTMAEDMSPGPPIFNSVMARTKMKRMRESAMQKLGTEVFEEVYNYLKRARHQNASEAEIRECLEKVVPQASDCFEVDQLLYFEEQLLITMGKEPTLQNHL

GRK5 = GRK5 (Homo sapiens, UniProt P34947)
SGK3 = SGK3 (Homo sapiens, UniProt Q96BR1)
PRKX = PRKX (Homo sapiens, UniProt P51817)
Sequence of PRKX (P51817 whole entry): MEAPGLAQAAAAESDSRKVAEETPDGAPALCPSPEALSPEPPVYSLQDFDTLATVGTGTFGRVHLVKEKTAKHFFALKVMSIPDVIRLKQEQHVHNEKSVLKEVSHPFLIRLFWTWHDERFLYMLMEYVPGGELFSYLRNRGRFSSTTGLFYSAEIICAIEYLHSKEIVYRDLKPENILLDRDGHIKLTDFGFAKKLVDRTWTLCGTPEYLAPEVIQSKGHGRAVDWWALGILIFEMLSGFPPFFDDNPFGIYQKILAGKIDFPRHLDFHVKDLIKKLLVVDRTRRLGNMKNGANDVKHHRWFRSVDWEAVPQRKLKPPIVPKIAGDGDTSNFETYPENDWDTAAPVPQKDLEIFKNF

MYO3A = MYO3A (Homo sapiens, UniProt Q8NEV4)
Sequence of MYO3A (Q8NEV4 whole entry): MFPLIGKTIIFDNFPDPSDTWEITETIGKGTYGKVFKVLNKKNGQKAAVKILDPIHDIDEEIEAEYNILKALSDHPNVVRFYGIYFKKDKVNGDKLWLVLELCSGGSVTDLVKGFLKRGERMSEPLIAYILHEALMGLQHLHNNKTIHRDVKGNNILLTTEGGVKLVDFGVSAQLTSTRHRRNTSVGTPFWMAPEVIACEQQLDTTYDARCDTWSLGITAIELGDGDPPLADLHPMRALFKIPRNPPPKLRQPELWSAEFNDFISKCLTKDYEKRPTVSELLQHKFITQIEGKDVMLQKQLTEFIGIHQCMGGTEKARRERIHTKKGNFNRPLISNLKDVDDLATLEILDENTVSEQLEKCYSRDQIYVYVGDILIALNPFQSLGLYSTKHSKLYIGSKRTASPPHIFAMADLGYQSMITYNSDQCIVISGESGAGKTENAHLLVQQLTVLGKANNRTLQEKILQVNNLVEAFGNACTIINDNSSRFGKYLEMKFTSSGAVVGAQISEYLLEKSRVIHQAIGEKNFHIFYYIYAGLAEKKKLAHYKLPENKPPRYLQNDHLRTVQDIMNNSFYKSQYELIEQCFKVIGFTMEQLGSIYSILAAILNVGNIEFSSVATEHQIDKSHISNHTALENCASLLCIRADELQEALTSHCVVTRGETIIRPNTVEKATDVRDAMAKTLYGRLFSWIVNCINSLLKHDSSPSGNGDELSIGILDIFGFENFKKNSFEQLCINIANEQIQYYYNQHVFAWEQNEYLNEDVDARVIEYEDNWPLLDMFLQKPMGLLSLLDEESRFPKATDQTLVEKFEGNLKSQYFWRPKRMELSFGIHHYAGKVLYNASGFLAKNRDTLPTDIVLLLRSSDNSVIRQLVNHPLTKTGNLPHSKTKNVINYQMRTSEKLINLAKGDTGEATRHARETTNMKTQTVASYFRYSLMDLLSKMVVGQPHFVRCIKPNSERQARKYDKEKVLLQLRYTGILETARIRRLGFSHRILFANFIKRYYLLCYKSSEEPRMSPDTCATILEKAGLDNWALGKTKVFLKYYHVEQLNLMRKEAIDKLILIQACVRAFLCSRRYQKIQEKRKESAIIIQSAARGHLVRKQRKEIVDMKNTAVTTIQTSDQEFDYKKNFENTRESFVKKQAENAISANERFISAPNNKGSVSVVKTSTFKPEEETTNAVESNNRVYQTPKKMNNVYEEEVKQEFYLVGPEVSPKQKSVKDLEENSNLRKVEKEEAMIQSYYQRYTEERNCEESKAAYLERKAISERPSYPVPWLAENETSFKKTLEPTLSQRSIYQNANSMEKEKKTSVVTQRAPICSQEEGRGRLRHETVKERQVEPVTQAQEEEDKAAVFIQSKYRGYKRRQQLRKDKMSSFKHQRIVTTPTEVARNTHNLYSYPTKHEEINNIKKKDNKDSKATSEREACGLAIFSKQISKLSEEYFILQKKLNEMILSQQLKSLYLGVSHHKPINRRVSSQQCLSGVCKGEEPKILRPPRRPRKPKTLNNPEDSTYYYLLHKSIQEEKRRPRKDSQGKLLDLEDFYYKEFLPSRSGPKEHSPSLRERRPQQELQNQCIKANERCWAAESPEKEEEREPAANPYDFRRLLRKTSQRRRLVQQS

FGFR4 = FGFR4 (Homo sapiens, UniProt P22455)

Sequence of PAK2 (Q13177 whole entry): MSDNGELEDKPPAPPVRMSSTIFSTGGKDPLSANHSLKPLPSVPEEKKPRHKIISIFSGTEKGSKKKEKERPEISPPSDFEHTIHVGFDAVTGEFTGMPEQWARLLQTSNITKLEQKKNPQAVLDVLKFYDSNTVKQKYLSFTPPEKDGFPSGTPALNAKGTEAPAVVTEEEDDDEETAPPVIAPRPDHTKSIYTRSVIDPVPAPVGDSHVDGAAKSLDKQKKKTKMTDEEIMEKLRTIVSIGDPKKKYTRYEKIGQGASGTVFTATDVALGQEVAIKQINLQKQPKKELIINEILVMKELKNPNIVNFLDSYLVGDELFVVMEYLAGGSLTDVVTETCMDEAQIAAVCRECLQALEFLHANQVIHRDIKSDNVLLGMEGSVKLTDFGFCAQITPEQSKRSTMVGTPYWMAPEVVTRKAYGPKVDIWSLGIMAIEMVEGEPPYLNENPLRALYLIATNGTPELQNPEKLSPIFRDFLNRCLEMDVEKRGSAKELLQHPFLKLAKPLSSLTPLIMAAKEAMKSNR
Sequence of TLK1 (Q9UKI8 whole entry): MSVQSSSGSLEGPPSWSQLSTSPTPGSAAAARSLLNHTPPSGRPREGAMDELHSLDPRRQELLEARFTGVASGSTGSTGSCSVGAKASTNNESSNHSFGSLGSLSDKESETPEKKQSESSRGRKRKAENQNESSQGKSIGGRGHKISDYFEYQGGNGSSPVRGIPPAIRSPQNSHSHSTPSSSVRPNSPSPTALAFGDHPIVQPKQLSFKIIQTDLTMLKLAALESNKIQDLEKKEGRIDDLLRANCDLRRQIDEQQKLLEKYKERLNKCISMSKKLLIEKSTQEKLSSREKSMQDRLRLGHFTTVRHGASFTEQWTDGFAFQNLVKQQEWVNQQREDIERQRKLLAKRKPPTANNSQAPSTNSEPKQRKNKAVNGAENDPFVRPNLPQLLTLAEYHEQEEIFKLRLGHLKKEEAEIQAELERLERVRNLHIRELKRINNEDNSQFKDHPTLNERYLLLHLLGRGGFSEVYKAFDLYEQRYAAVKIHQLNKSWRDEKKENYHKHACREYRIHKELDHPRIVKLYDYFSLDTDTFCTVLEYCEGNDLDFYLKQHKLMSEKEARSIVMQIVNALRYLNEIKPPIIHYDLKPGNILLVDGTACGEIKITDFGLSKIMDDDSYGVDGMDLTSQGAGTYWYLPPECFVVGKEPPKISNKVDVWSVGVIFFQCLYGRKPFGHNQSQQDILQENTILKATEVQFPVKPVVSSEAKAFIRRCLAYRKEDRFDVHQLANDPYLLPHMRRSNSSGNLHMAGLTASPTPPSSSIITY
Sequence of MAPK7 (Q13164 whole entry): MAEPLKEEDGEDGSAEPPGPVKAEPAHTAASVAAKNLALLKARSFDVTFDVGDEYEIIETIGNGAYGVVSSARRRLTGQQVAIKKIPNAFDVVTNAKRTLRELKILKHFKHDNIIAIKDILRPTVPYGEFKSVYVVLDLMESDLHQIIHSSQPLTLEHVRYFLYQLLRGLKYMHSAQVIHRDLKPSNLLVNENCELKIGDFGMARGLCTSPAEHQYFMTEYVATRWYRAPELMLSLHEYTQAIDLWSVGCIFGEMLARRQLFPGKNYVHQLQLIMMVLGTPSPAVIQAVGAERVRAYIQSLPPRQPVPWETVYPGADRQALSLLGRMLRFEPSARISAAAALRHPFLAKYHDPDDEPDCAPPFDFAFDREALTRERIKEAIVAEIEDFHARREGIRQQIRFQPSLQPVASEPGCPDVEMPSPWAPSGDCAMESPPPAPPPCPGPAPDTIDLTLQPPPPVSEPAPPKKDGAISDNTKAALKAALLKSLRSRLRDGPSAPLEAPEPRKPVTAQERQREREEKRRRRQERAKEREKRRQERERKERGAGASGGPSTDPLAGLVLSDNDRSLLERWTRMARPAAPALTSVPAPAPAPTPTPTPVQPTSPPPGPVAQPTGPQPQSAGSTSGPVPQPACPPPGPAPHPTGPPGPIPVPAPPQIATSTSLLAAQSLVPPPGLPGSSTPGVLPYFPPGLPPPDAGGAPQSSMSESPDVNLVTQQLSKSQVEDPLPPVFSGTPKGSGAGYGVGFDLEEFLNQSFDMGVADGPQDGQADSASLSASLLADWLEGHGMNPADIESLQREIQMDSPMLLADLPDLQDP

CC(=O)c1cccc(-c2cnc3ccc(NCC4CC4)nn23)c1 [compound 1, K00135]
ΔTm inhibitor 1 (OXSR1): 0.5 °C
ΔTm inhibitor 1 (CSNK1E): 4.4 °C
ΔTm inhibitor 1 (BMPR2): 7.8 °C

CCN1/C(=C/C(C)=O)Sc2ccc(OC)cc21 [compound 2, TG003]
ΔTm inhibitor 2 (STK32C): -0.9 °C
ΔTm inhibitor 2 (PAK2): -0.6 °C
ΔTm inhibitor 2 (TLK1): -0.1 °C
ΔTm inhibitor 2 (MAPK7): 0.2 °C
ΔTm inhibitor 2 (CAMK2G): 0.1 °C
ΔTm inhibitor 2 (PBK): 0.5 °C
ΔTm inhibitor 2 (NEK6): -1.0 °C
ΔTm inhibitor 2 (TYK2): 0.6 °C
ΔTm inhibitor 2 (NEK11): 0.6 °C
ΔTm inhibitor 2 (GRK5): 0.8 °C
ΔTm inhibitor 2 (SGK3): -0.1 °C
ΔTm inhibitor 2 (PRKX): -0.2 °C

Nc1nccc(-c2ccc3noc(-c4ccc(Cl)cc4)c3c2)n1 [compound 4, K00972]
ΔTm inhibitor 4 (MYO3A): 0.2 °C
ΔTm inhibitor 4 (FGFR4): 0.2 °C
